Reference: patent US11773087B2, “GLP-1R receptor agonist compound and use thereof” (SUZHOU VINCENTAGE PHARMA CO., LTD, priority 2020, dated 2023)
Like-named read-outs stand apart in the source and are kept apart here.

Experiments:
[1] = Pharmacokinetic evaluation in rats (gavage); assay type: in vivo; conditions: rat, 10 mg/kg single oral gavage, plasma
Description: Test Embodiment 2: Pharmacokinetic Evaluation in Rats
The drug concentrations in the plasma of rats were tested at different times after the administration of the compounds by gavage using rats as test animals. The pharmacokinetic behavior of the compounds of the present disclosure in rats was studied and their pharmacokinetic characteristics were evaluated. In each group of embodiments, 3 rats with similar body weight were selected and administered orally at a dose of 10 mg/kg for a single administration. Blood was collected from animals at 15 min, 30 min, 1 h, 2 h, 4 h, 6 h, 8 h, 12 h, 24 h time points after administration. The LC-MS/MS analysis method was used to detect the content of the compound in plasma, and the lower limit of quantification of the method was 20 ng/mL. Concentration data in plasma was counted using the metabolic kinetic data analysis software WinNonlin 7.0, and the pharmacokinetic parameters were calculated using the non-compartmental analysis (NCA), as shown in Table 2 below.
Drug configuration: A certain amount of drug was taken, added with 2% Klucel LF+0.1% Tween 80 aqueous solution to prepare a clear solution or a uniform suspension.
Administration: Rats were administered by gavage after overnight fasting at a dose of 10 mg/kg.
Operation: Rats were administered by gavage, and blood was collected from the tail vein before administration and 15 min, 30 min, 1 h, 2 h, 4 h, 6 h, 8 h, 12 h, 24 h after administration, placed in heparinized sample tubes, centrifuged at 4° C., 3500 rpm for 10 min to separate plasma, stored at −20° C., and fed 2 hours after administration.
Determination of the content of test compounds in rat plasma after drug administration by gavage: 50 μL of plasma samples were thawed at room temperature, added with 130 μL of internal standard working solution (1000 ng/mL, acetonitrile, tolbutamide), vortexed for about 1 min and then centrifuged for 10 min at 4° C. and 13000 rpm. 50 μL of supernatant was mixed with 100 μL of 50% acetonitrile in water, and then the sample was injected for LC/MS/MS analysis.

human GLP-1R receptor = biological target: T1, human GLP-1R receptor (Homo sapiens, UniProt P43220); experiment: GLP-1R cAMP assay (HTRF, HEK293 cells expressing GLP-1R); assay type: cell-based; conditions: agonistic activity, GLP-1R HEK293 cells
T1 construct: expressed in transfected cells; host or cells: 'GLP-1R cells' (frozen vial)
T1 sequence (P43220 24-463): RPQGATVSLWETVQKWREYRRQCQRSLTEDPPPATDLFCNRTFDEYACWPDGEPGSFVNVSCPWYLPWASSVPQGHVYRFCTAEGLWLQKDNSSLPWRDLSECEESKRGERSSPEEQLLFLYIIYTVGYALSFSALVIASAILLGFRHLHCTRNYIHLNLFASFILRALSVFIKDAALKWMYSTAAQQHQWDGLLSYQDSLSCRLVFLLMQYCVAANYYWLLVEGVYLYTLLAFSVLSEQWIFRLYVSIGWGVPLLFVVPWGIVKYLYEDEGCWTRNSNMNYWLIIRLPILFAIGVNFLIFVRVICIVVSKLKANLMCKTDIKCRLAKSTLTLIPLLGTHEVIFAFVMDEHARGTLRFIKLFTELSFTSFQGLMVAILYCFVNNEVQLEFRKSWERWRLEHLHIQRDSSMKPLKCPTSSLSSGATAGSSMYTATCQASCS
Description: Test Embodiment 1: Activity Test of GLP-1R cAMP Assay
This experiment aims to verify the agonistic activity of the compound of the present disclosure on human GLP-1R receptor.
Compounds were diluted 4-fold starting at 100 μM from DMSO using Bravo for a total of 10 points.
The reference compound polypeptide GLP-1 (7-37) was diluted 4-fold starting from 500 nM in DMSO using Bravo for a total of 10 points.
b) Preparation of Cell Suspension: • 1) 1 vial of GLP-1R cells was quickly thawed in a 37° C. water bath. • 2) The suspension of the cells was transferred to 10 mL of HBSS in a 15 mL conical tube. • 3) The cells were centrifuged at 1000 rpm for 5 min at room temperature to precipitate the cells. • 4) The supernatant was gently aspirated, and being careful not to aspirate the cells. • 5) The cells were relaxed by flicking the precipitation, and then the cell precipitation was re-suspended in 10 mL of HBSS. A sterile pipette was used to move fluid up and down to remove clumps. • 6) The concentration of cells was counted and the cell viability on Vi-cell was determined. • 7) GLP-1R cells were re-suspended in the test buffer at a concentration of 2.0×E5/mL cells. • 8) 10 μL of GLP-1R cell was transferred to OptiPlate-384 well plate.
c) Transfer of Compound: • 1) 100 nL of compound was transferred to OptiPlate-384 plate using Echo Transfer. • 2) The plate was rotated at 1000 rpm for 5 seconds.
d) HTRF cAMP Analysis of Agonists: • 1) The plate was incubated at room temperature for 30 minutes before adding detection reagents. • 2) An electric multi-channel pipette was used to add 10 μL of detection reagents respectively. • 3) The 384 well plate was covered with TopSeal-A membrane and incubated for 60 min at room temperature.
TopSeal-A was unloaded and read on EnVision.

[2] = Pharmacokinetic evaluation of cynomolgus monkey (IV and oral); assay type: in vivo, cynomolgus monkeys; conditions: for F: 50 mg/kg PO vs 1 mg/kg IV, oral bioavailability; for Cmax / Tmax / clearance / half-life / AUC(0-t) / concentration at 24 h: male, plasma; for AUC(0-t): read-out: AUC0-24 h; for concentration at 24 h: read-out: C24 h
Description: Test Embodiment 3: Pharmacokinetic Evaluation of Cynomolgus Monkey
The drug concentrations in the plasma of cynomolgus monkeys were tested at different times after intravenous injection and oral administration of the compounds using cynomolgus monkeys as test animals. The pharmacokinetic behavior of the compounds of the present disclosure in cynomolgus monkeys was studied and their pharmacokinetic characteristics were evaluated. In each group of embodiments, 2 cynomolgus monkeys with similar body weight were selected, administered at a dose of 1 mg/kg by intravenous injection and at a dose of 50 mg/kg by oral administration for a single administration.
Age of cynomolgus monkeys at the time of administration: about 2-4 years old; body weight: 3.0-4.6 kg at the beginning of administration; 4 monkeys; sex: male.
Intravenous group: The final concentration of 0.5 mg/mL was prepared for intravenous administration, and the preparation solvent was 5% DMSO+45% PEG400+50% water, and the preparation was in a clarified solution.
Oral group: The final concentration of 10 mg/mL was prepared for oral administration, and the preparation solvent was 5% DMSO+45% PEG400+50% water, and the preparation was in homogeneous suspension.
Blood was collected from animals at 5 min, 15 min, 30 min, 1 h, 2 h, 4 h, 7 h, 12 h, 24 h time points after administration. The LC-MS/MS analysis method was used to detect the content of the compound in plasma, and the lower limit of quantification of the method was 20 ng/mL. Concentration data in plasma was counted using the metabolic kinetic data analysis software WinNonlin 7.0, and the pharmacokinetic parameters were calculated using the non-compartmental analysis (NCA), as shown in Table 3 below.
Determination of the content of test compounds in the plasma of cynomolgus monkeys after drug administration: After blood samples were collected, placed in a marked ice-bath centrifuge tube, and rapidly centrifuged to separate the plasma. Centrifugation conditions: 4000 rpm, 10 minutes, 4° C., and plasma was stored at −40° C. or less for testing.

[3] = obese patients, cited from earlier work

Row | AUC(0-inf) [1] [ng·h/mL] | Cmax [1] [ng/mL] | Tmax [1] [h] | half-life [1] [h] | EC50 (human GLP-1R receptor) [nM] | F [2] [%] | Cmax ([2]; 1 mg/kg IV) [ng/mL] | Tmax ([2]; 1 mg/kg IV) [h] | clearance ([2]; 1 mg/kg IV) [mL/min/kg] | half-life ([2]; 1 mg/kg IV) [h] | AUC(0-t) ([2]; 1 mg/kg IV) [ng·h/mL] | Cmax ([2]; 50 mg/kg PO) [ng/mL] | Tmax ([2]; 50 mg/kg PO) [h] | half-life ([2]; 50 mg/kg PO) [h] | concentration at 24 h ([2]; 50 mg/kg PO) [ng/mL] | AUC(0-t) ([2]; 50 mg/kg PO) [ng·h/mL] | Compound | patients with ≥5% weight loss ([3]; 2.4 mg group, 68 weeks) [%] | decrease of mean baseline body weight ([3]; 2.4 mg, 68 weeks of treatment, baseline 105.3 kg) [%]
1 | 1030 | 1160 | 0.25 | 2.58 | 0.9 | 51.2 | 1590 | 0.083 | 19.2 | 0.98 | 898 | 2440 | 2.5 | 22.6 | 597 | 23000 | O=C(O)c1ccc2nc(CN3CCC(c4ccccc4OCc4ccc(Cl)cc4F)CC3)n(C[C@@H]3CCO3)c2c1 [Compound 3] |  | 
2 | 417 | 90 | 0.83 | 2.11 | 0.7 |  |  |  |  |  |  |  |  |  |  |  | O=C(O)c1ccc2nc(CN3CCC(c4cccc(F)c4OCc4ccc(Cl)cc4F)CC3)n(C[C@@H]3CCO3)c2c1 [Compound 4] |  | 
3 | 1320 | 1020 | 0.25 | 2.68 | 1 |  |  |  |  |  |  |  |  |  |  |  | Cc1ccc(COc2ccccc2C2CCN(Cc3nc4ccc(C(=O)O)cc4n3C[C@@H]3CCO3)CC2)c(F)c1 [Compound 12] |  | 
4 | 179 | 55 | 0.42 | 6.88 |  | 8.0 | 2220 | 0.083 | 15.9 | 1.14 | 1070 | 2050 | 1.75 | 10.9 | 41.4 | 4330 | N#Cc1ccc(COc2cccc(C3CCN(Cc4nc5ccc(C(=O)O)cc5n4C[C@@H]4CCO4)CC3)n2)c(F)c1 [PF-06882961, reference compound] |  | 
5 | 351 | 105 | 0.33 | 3.2 | 1 |  |  |  |  |  |  |  |  |  |  |  | O=C(O)c1ccc2nc(CN3CCC(c4cccc(OCc5ccc(Cl)cc5F)n4)CC3)n(C[C@@H]3CCO3)c2c1 [Ref-01, reference compound] |  | 
6 | 229 | 171 | 0.25 | 5.52 | 1 |  |  |  |  |  |  |  |  |  |  |  | O=C(O)c1ccc2nc(CN3CCC(c4cccnc4OCc4ccc(Cl)cc4F)CC3)n(C[C@@H]3CCO3)c2c1 [Ref-02, reference compound] |  | 
7 |  |  |  |  |  |  |  |  |  |  |  |  |  |  |  |  | semaglutide | 86.4 | 14.9
